What was measured:
C57Bl/6 mice [1] = assay: Y maze spontaneous alternation test; assay type: in vivo; details: two cycles of cisplatin
[2] = tested on: intraepidermal nerve fibers; assay: IENF density in hind paw skin; assay type: in vivo, mice; details: two cycles of cisplatin 2.3 mg/kg i.p.
p-c-Jun in the DRGs = assay: p-c-Jun in DRG after one treatment cycle; assay type: in vivo, mice; details: one cycle of cisplatin 2.3 mg/kg i.p. for 5 days
DRG transcriptome = assay: RNA sequencing of DRG; assay type: in vivo, mice; details: cisplatin alone vs controls, one cycle
[3] = tested on: NCI-H69 human lung cancer xenograft; assay: NCI-H69 lung cancer xenograft, tumor volume; assay type: in vivo, BALB/c nude mice; details: cisplatin 4 mg/kg i.p. every 4 days, 6 doses
C57Bl/6 mice [4] = assay: Puzzle box test; assay type: in vivo; details: two cycles of cisplatin; cardboard plug, trials 8–11
synaptosomes = details: two cycles of cisplatin

N.N.[Cl][Pt][Cl] [cisplatin]
Y maze alternation rate (C57Bl/6 mice [1]): significant decrease in the alternation rate | IENF density in the hind paws [2]: reduced IENF density | p-c-Jun in DRG (p-c-Jun in the DRGs): significantly, but modestly, induced p-c-Jun | number of genes with changed expression (DRG transcriptome): 1337 | tumor growth [3]: significantly reduced tumor growth | time to enter the goal box with difficult obstacle (C57Bl/6 mice [4]): required significantly more time to enter the goal box | synaptosomal MRC and SRC (synaptosomes): reduced maximal respiratory capacity and spare respiratory capacity

Reference: paper PMC8442742 (Pain, 2021)
